Non-standard residues stand in square brackets, D forms with d. Residues, ends and D or L forms follow the SMILES beside them. *: point of attachment. Sta = CC(C)C[C@H](N)[C@@H](O)CC(=O)O; Isovaleryl = CC(C)CC(=O)*
B1: Subtilisin: protease, Sigma type VIII, 11.6 units/mg solid (protein, UniProt P00780 106-379, looked up)
Subtilisin Carlsberg: AQTVPYGIPLIKADKVQAQGFKGANVKVAVLDTGIQASHPDLNVVGGASFVAGEAYNTDGNGHGTHVAGTVAALDNTTGVLGVAPSVSLYAVKVLNSSGSGSYSGIVSGIEWATTNGMDVINMSLGGASGSTAMKQAVDNAYAKGVVVVAAAGNSGSSGNTNTIGYPAKYDSVIAVGAVDSNSNRASFSSVGAELEVMAPGAGVYSTYPTNTYATLNGTSMASPHVAGAAALILSKHPNLSASQVRNRLSSTATYLGSSFYYGKGLINVEAAAQ
B2: Thermolysin: protease, Sigma, 37 units/mg solid (protein, UniProt P00800 233-548, looked up)
Thermolysin: ITGTSTVGVGRGVLGDQKNINTTYSTYYYLQDNTRGNGIFTYDAKYRTTLPGSLWADADNQFFASYDAPAVDAHYYAGVTYDYYKNVHNRLSYDGNNAAIRSSVHYSQGYNNAFWNGSQMVYGDGDGQTFIPLSGGIDVVAHELTHAVTDYTAGLIYQNESGAINEAISDIFGTLVEFYANKNPDWEIGEDVYTPGISGDSLRSMSDPAKYGDPDHYSKRYTGTQDNGGVHINSGIINKAAYLISQGGTHYGVSVVGIGRDKLGKIFYRALTQYLTPTSNFSQLRAAAVQSATDLYGSTSQEVASVKQAFDAVGVK

Columns and labels:
Con A Oo12 ApM activity = test: Con A O12 aminopeptidase inhibition assay, ApM (leucine p-nitroanilide); type: biochemical, Ostertagia ostertagi
Description: (§1) The effect of various protease inhibitors on Oo12 activity was assayed and included amastatin (aminopeptidase inhibitor), actinonin (aminopeptidase inhibitor), bestatin (aminopeptidase inhibitor), EDTA (metallo-protease inhibitor), E64 (cysteine protease inhibitor), pepstatin (aspartic protease inhibitor), 1,10 phenanthroline (metallo-protease inhibitor) and 3,4-dichloroisocoumarin (DCI, serine protease inhibitor). 10 μl Con A Oo12 and 100 μl 50 mM Mops buffer, pH 7.0 was added to a microtitre plate well and 2-4 μl of enzyme inhibitor added, to give a final concentration of 0.5 mM and 1 mM actinonin, 50 μM and 100 μM bestatin, 1 mM and 15 mM EDTA, 50 μM and 100 μM E64, 10 and 50 μM pepstatin, 1 mM and 10 mM 1,10 phenanthroline, 100 μM and 500 μM DCI. The plate was preincubated at 37° C. for 20-28 minutes and then assayed for ApM and ApA activity. 100 μl 2 mM leucine p-nitroanilide (ApM) or α-glutamic p-nitroanilide (ApA)/Mops was added per well and the optical density (OD) at 405 nm read using an Elisa plate reader. The plates were incubated at 37° C. for 45-48 minutes and the final OD reading was then taken. The OD change per minute per 10 μl sample was calculated. All assays were carried out in triplicate.

Con A Oo12 ApA activity = test: Con A O12 aminopeptidase inhibition assay, ApA (α-glutamic p-nitroanilide); type: biochemical, Ostertagia ostertagi
Description: as §1

Ostertagia ostertagi PHP = test: Protease digestion of Oo PhP, release of ApM activity; type: biochemical
Description: Method: Oo PhP was resuspended in 50 mM Mops buffer, pH 7.0 to give 0.1 mg pellet/ml. 50 μl aliquots were prewarmed at 37° C. for 39 minutes. 5 μl of either α-Chymotrypsin (Sigma type VII, 50 units/mg solid), Subtilisin (Sigma type VIII, 11.6 units/mg solid), Trypsin (Sigma, TPCK-treated type XIII, 9700 units/mg solid) or Thermolysin (Sigma, 37 units/mg solid dissolved in 1 mM KCl/2 mM CaCl) was added to give final protease concentrations of 5, 50, 500, 1000 and 2000 μg/ml. Aliquots containing chymotrypsin, trypsin or subtilisin were then incubated at 37° C. for 1 hour and protease activity inhibited by the addition of 1 μl 10 mM 3,4-dichloroisocoumarin (DCI). Aliquots containing thermolysin were incubated for 2 hours at 37° C. and activity inhibited by the addition of 1 μl 0.25M EDTA. Samples were spun at high speed on the airfuge at 20 psi for 20 minutes at room temperature. 5 μl samples were assay for ApM activity, using the microtitre plate method, over 29.6 minutes with methionine-pNA as substrate.

Molecule	Leu-pNA enzyme activity (Con A Oo12 ApM activity; inhibitor 1 mM) [nmoles/min/10 μl ConA O12]	Leu-pNA enzyme inhibition (Con A Oo12 ApM activity; inhibitor 1 mM) [%]	α-Glu-pNA enzyme activity (Con A Oo12 ApA activity; inhibitor 1 mM) [nmoles/min/10 μl ConA O12]	α-Glu-pNA enzyme inhibition (Con A Oo12 ApA activity; inhibitor 1 mM) [%]	Leu-pNA enzyme activity (Con A Oo12 ApM activity; inhibitor 50 μM) [nmoles/min/10 μl ConA O12]	Leu-pNA enzyme inhibition (Con A Oo12 ApM activity; inhibitor 50 μM)	Leu-pNA enzyme activity (Con A Oo12 ApM activity; inhibitor 100 μM) [nmoles/min/10 μl ConA O12]	Leu-pNA enzyme inhibition (Con A Oo12 ApM activity; inhibitor 100 μM)	α-Glu-pNA enzyme activity (Con A Oo12 ApA activity; inhibitor 50 μM) [nmoles/min/10 μl ConA O12]	α-Glu-pNA enzyme inhibition (Con A Oo12 ApA activity; inhibitor 50 μM) [%]	α-Glu-pNA enzyme activity (Con A Oo12 ApA activity; inhibitor 100 μM) [nmoles/min/10 μl ConA O12]	α-Glu-pNA enzyme inhibition (Con A Oo12 ApA activity; inhibitor 100 μM) [%]	further results
c1cnc2c(c1)ccc1cccnc12 [1,10 Phenanthroline, 1,10 phenanthroline]	0.005	99	0	100	–	–	–	–	–	–	–	–	inhibitory effect on aminopeptidase activity (Con A Oo12 ApM activity; 10 mM): greatest inhibition; Leu-pNA enzyme activity (Con A Oo12 ApM activity; inhibitor 10 mM): 0 nmoles/min/10 μl ConA O12; Leu-pNA enzyme inhibition (Con A Oo12 ApM activity; inhibitor 10 mM): 100%; α-Glu-pNA enzyme activity (Con A Oo12 ApA activity; inhibitor 10 mM): 0 nmoles/min/10 μl ConA O12; α-Glu-pNA enzyme inhibition (Con A Oo12 ApA activity; inhibitor 10 mM): 100%
CCCCC[C@H](CC(=O)NO)C(=O)N[C@H](C(=O)N1CCC[C@H]1CO)C(C)C [Actinonin, actinonin]	0.448	63	0.029	91	–	–	–	–	–	–	–	–	Leu-pNA enzyme activity (Con A Oo12 ApM activity; inhibitor 0.5 mM): 0.621 nmoles/min/10 μl ConA O12; Leu-pNA enzyme inhibition (Con A Oo12 ApM activity; inhibitor 0.5 mM): 49%; α-Glu-pNA enzyme activity (Con A Oo12 ApA activity; inhibitor 0.5 mM): 0.016 nmoles/min/10 μl ConA O12; α-Glu-pNA enzyme inhibition (Con A Oo12 ApA activity; inhibitor 0.5 mM): 95%
CC(C)C[C@H](NC(=O)[C@@H](O)[C@H](N)Cc1ccccc1)C(=O)O [Bestatin, bestatin]	–	–	–	–	0.045	96%	0.022	98%	0.174	48	0.119	64	–
O=c1oc(Cl)c(Cl)c2ccccc12 [DCI, 3,4-dichloroisocoumarin]	–	–	–	–	–	–	1.229	0%	–	–	0.252	24	Leu-pNA enzyme activity (Con A Oo12 ApM activity; inhibitor 500 μM): 1.129 nmoles/min/10 μl ConA O12; Leu-pNA enzyme inhibition (Con A Oo12 ApM activity; inhibitor 500 μM): 8%; α-Glu-pNA enzyme activity (Con A Oo12 ApA activity; inhibitor 500 μM): 0.216 nmoles/min/10 μl ConA O12; α-Glu-pNA enzyme inhibition (Con A Oo12 ApA activity; inhibitor 500 μM): 35%
CC(C)C[C@H](NC(=O)[C@H]1O[C@@H]1C(=O)O)C(=O)NCCCCN=C(N)N [E64]	–	–	–	–	1.241	0 (+1%)	1.278	0 (+4%)	0.323	3	0.327	2	–
O=C(O)CN(CCN(CC(=O)O)CC(=O)O)CC(=O)O [EDTA]	0.994	19	0.161	52	–	–	–	–	–	–	–	–	Leu-pNA enzyme activity (Con A Oo12 ApM activity; inhibitor 15 mM): 0.784 nmoles/min/10 μl ConA O12; Leu-pNA enzyme inhibition (Con A Oo12 ApM activity; inhibitor 15 mM): 36%; α-Glu-pNA enzyme activity (Con A Oo12 ApA activity; inhibitor 15 mM): 0.112 nmoles/min/10 μl ConA O12; α-Glu-pNA enzyme inhibition (Con A Oo12 ApA activity; inhibitor 15 mM): 66%
CC(C)CC(=O)N[C@H](C(=O)N[C@H](C(=O)N[C@@H](CC(C)C)[C@@H](O)CC(=O)N[C@@H](C)C(=O)N[C@@H](CC(C)C)[C@@H](O)CC(=O)O)C(C)C)C(C)C [Pepstatin, pepstatin] (Isovaleryl-VV[Sta]A[Sta]-OH)	–	–	–	–	1.263	0 (+3%)	–	–	0.315	6	–	–	Leu-pNA enzyme activity (Con A Oo12 ApM activity; inhibitor 10 μM): 1.297 nmoles/min/10 μl ConA O12; Leu-pNA enzyme inhibition (Con A Oo12 ApM activity; inhibitor 10 μM): 0 (+6%); α-Glu-pNA enzyme activity (Con A Oo12 ApA activity; inhibitor 10 μM): 0.326 nmoles/min/10 μl ConA O12; α-Glu-pNA enzyme inhibition (Con A Oo12 ApA activity; inhibitor 10 μM): 2%
B1	–	–	–	–	–	–	–	–	–	–	–	–	Aminopeptidase M activity released by protease digestion, Met-pNA (Ostertagia ostertagi PHP; 5 μg protease/0.1 mg PHP/ml): 0.06 nmoles/min/5 μl high speed supernatant; Aminopeptidase M activity released by protease digestion, Met-pNA (Ostertagia ostertagi PHP; 50 μg protease/0.1 mg PHP/ml): 0.10 nmoles/min/5 μl high speed supernatant; Aminopeptidase M activity released by protease digestion, Met-pNA (Ostertagia ostertagi PHP; 500 μg protease/0.1 mg PHP/ml): 0.35 nmoles/min/5 μl high speed supernatant; Aminopeptidase M activity released by protease digestion, Met-pNA (Ostertagia ostertagi PHP; 1000 μg protease/0.1 mg PHP/ml): 0.66 nmoles/min/5 μl high speed supernatant; Aminopeptidase M activity released by protease digestion, Met-pNA (Ostertagia ostertagi PHP; 2000 μg protease/0.1 mg PHP/ml): 0.95 nmoles/min/5 μl high speed supernatant
B2	–	–	–	–	–	–	–	–	–	–	–	–	Aminopeptidase M activity released by protease digestion, Met-pNA (Ostertagia ostertagi PHP; 5 μg protease/0.1 mg PHP/ml): 0.06 nmoles/min/5 μl high speed supernatant; Aminopeptidase M activity released by protease digestion, Met-pNA (Ostertagia ostertagi PHP; 50 μg protease/0.1 mg PHP/ml): 0.07 nmoles/min/5 μl high speed supernatant; Aminopeptidase M activity released by protease digestion, Met-pNA (Ostertagia ostertagi PHP; 500 μg protease/0.1 mg PHP/ml): 0.08 nmoles/min/5 μl high speed supernatant; Aminopeptidase M activity released by protease digestion, Met-pNA (Ostertagia ostertagi PHP; 1000 μg protease/0.1 mg PHP/ml): 0.11 nmoles/min/5 μl high speed supernatant; Aminopeptidase M activity released by protease digestion, Met-pNA (Ostertagia ostertagi PHP; 2000 μg protease/0.1 mg PHP/ml): 0.19 nmoles/min/5 μl high speed supernatant; release of ApM from the PhP (Ostertagia ostertagi PHP; 5-2000 μg/ml protease): least effective
